Consider one molecule from US20250268894A1, “MACROCYCLE COMPOUNDS FOR THE TREATMENT OF CANCER” (Hoffmann-La Roche Inc., priority 2022, published 2025).

The subject of assay [1] is Miapaca-2 KRAS G12C + F156L cells. The assay can be described thus: Stable KRAS mutant cell line viability assay (CellTiter-Glo), G12C + F156L. Type of assay: cell-based. To be noted: Homo sapiens, MIA PaCa-2, 72 h, Miapaca-2 mutant cells, 3 d. An excerpt:
(§1) The aim of the study was to determine the potency and efficacy of compounds for cell proliferation using CellTiter-Glo® (CTG) Luminescent Cell Viability Assay (Promega Corp., Madison, WI). We cloned […] KRAS^G12C variant sequences with secondary mutations (V8A, V9Y, S17E, T58I, A59T, S65W, R68S, D69P, M72I, D92R, H95N, Y96D, Q99F, Q99W, Y96H, and F156L) into the Miapaca-2. Totally 14 stable Miapaca-2 mutant cell lines were established through lentivirus infection. For the cell viability assay, cells were dosed with compounds in a 9-point dose-response using a 4 fold dilution series at a top dose of 10 μM. KRAS mutant cells were maintained in DMEM+10% FBS+2.5% HI Horse serum+1% PS+1 μg/mL Puromycin and seeded into 96-well plates at 800-1,500 cells per well 24 h before compound addition and then incubated with compound for 3 d before assaying viability (CellTiter-Glo, Promega). Assays were performed in biological duplicates. Nonlinear regression curves were fitted using Xfit. IC50 (absolute IC50) is the dose at which the estimated viability is 50% relative to untreated wells.

Another assay addresses KRAS G12D-BRAF complex (Homo sapiens (Human), UniProt P01116+P62937, G12D). The assay can be described thus: KRAS-BRAF with CYPA (500 nM) interaction assay (TR-FRET), G12D. The assay is classed as biochemical. On the procedure: Kras-BRAF with CYPA (500 nM) Interaction Assay In this example, TR-FRET was also used to measure the compound or compound-CYPA dependent disruption of the KRAS G12C-BRAF complex. This protocol was also used to measure disruption of KRAS G12D or KRAS G12V binding to BRAF by a compound of the invention, respectively. […] Compound was present in plate wells as a 16-point 3-fold dilution series starting at a final concentration of 10 μM and incubated for 3 hours. […] TR-FRET signal was read on a […] microplate reader (Ex320 nm, Em 665/615 nm). Compounds that facilitate disruption of the KRAS-BRAF complex were identified as those eliciting a decrease in the TR-FRET ratio relative to DMSO control wells.

For assay [2], the system named is Miapaca-2 KRAS G12C + S65W cells. The assay can be described thus: Stable KRAS mutant cell line viability assay (CellTiter-Glo), G12C + S65W. The assay is classed as cell-based. The conditions noted are these: Homo sapiens, MIA PaCa-2, 72 h, Miapaca-2 mutant cells, 3 d.
Text: as §1

Assay [3] has as its system Miapaca-2 KRAS G12C + D92R cells. The assay can be described thus: Stable KRAS mutant cell line viability assay (CellTiter-Glo), G12C + D92R. The assay is classed as cell-based. To be noted: Homo sapiens, MIA PaCa-2, 72 h, Miapaca-2 mutant cells, 3 d.
Text: as §1

Assay [4] has as its system Miapaca-2 KRAS G12C + S17E cells. The assay can be described thus: Stable KRAS mutant cell line viability assay (CellTiter-Glo), G12C + S17E. The conditions noted are these: Homo sapiens, MIA PaCa-2, 72 h, Miapaca-2 mutant cells, 3 d. Type of assay: cell-based.
Text: as §1

The test system of another assay is AGS cells (KRAS G12D). The assay can be described thus: Cell viability assay (Cell Counting Kit-8), KRAS G12D. Type of assay: cell-based. To be noted: Homo sapiens, 72 hrs. An outline of the steps: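 Cells seeded overnight at 5,000/well (NCI-H358) or 2,000/well (AGS, SW620), then exposed to compound for 72 hrs at 0.5% DMSO final. CCK-8 read as OD450 minus OD650 after 2 hrs; IC50 from 4-parameter sigmoidal fit.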

Assay [5] deals with Miapaca-2 KRAS G12C + D60P cells. The assay can be described thus: Stable KRAS mutant cell line viability assay (CellTiter-Glo), G12C + D60P. Type of assay: cell-based. To be noted: Homo sapiens, MIA PaCa-2, 72 h, Miapaca-2 mutant cells, 3 d.
Text: as §1

Assay [6] relates to Miapaca-2 KRAS G12C + V9Y cells. The assay can be described thus: Stable KRAS mutant cell line viability assay (CellTiter-Glo), G12C + V9Y. Type of assay: cell-based. The conditions noted are these: Homo sapiens, MIA PaCa-2, 72 h, Miapaca-2 mutant cells, 3 d.
Text: as §1

Assay [7] deals with Miapaca-2 KRAS G12C + V8A cells. The assay can be described thus: Stable KRAS mutant cell line viability assay (CellTiter-Glo), G12C + V8A. The assay is classed as cell-based. The conditions noted are these: Homo sapiens, MIA PaCa-2, 72 h, Miapaca-2 mutant cells, 3 d.
Text: as §1

Assay [8] relates to phosphorylation of ERK, KRAS G12D in AGS cells. The assay can be described thus: pERK inhibition assay, KRAS G12D in AGS cells. The assay is classed as cell-based, human. The conditions noted are these: Homo sapiens, 4 hours. An outline of the steps:
(§2)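 NCI-H358 (G12C), AGS (G12D) and SW620 (G12V) cells in RPMI-1640/10% FBS, plated overnight, then treated 4 h with compound (0.5% DMSO final). Fixed, methanol-permeabilized; phospho-ERK detected by in-cell ELISA (anti-pERK, HRP secondary, TMB, OD450). IC50 from 4-parameter sigmoidal fit.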

Assay [9] deals with phosphorylation of ERK, KRAS G12C in NCI-H358 cells. The assay can be described thus: pERK inhibition assay, KRAS G12C in NCI-H358 cells. Type of assay: cell-based, human. To be noted: Homo sapiens, NCI-H358, 4 hours. An outline of the steps: as §2
Assay [10] has as its system Miapaca-2 KRAS G12C + T58I cells. The assay can be described thus: Stable KRAS mutant cell line viability assay (CellTiter-Glo), G12C + T58I. The conditions noted are these: Homo sapiens, MIA PaCa-2, 72 h, Miapaca-2 mutant cells, 3 d. The assay is classed as cell-based.
Text: as §1

Sequence of KRAS G12D-BRAF complex (P01116-2 other isoform, or with tags, fused parts or gaps G12D): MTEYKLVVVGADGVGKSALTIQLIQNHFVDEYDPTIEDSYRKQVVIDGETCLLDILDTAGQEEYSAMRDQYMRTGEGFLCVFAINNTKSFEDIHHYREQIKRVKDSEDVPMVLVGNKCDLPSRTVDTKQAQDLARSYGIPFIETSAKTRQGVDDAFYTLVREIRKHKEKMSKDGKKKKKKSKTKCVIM
Sequence of KRAS G12D-BRAF complex (P62937 whole entry): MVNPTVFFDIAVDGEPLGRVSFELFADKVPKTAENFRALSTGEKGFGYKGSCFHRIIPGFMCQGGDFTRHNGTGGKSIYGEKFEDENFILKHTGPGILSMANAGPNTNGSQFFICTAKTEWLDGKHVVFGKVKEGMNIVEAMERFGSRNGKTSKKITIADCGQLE

Regarding `CO[C@@H](C)c1ncc(N2CCN(CC(F)(F)F)CC2)cc1-c1c2c3cc(ccc3n1CC(F)(F)F)-c1csc(n1)C[C@H](NC(=O)[C@H](C(C)C)N(C)C(=O)N1CCOCC1)C(=O)N1CCC[C@H](N1)C(=O)OCC(C)(C)C2` (atropisomer, axis not shown; (M)) [Example 6], the IC50 in assay [1] was 8 nM; against KRAS G12D-BRAF complex it was 71 nM; in assay [2] it was 6 nM; in [3] it was 5 nM; in assay [4], 5 nM; with AGS cells (KRAS G12D), 20 nM. The IC50 in [5] came out at 8 nM; in assay [6], 2 nM; in assay [7] it was 2 nM; in assay [8], 3 nM; in assay [9], 2 nM; in assay [10] it was 7 nM.
